BindingDB's records for doi:10.1016/S0960-894X(97)00219-9 (1997)

Target: T1, Cysteinyl leukotriene receptor 1 (Cavia porcellus, UniProt Q2NNR5)
T1 sequence (Q2NNR5 whole entry): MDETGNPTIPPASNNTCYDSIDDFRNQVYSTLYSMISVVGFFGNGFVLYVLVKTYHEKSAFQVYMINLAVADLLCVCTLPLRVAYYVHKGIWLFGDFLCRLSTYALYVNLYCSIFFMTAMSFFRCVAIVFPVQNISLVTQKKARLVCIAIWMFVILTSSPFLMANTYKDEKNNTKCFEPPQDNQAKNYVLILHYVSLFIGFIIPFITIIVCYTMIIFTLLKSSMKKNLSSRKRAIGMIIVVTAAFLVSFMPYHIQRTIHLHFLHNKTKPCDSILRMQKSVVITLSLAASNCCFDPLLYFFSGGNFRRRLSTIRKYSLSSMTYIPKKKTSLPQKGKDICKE
Assay: ChEBML_52039
Procedure: Dissociation constant for CysLT1 receptor was determined by the displacement of [3H]LTD4 from guinea pig lung membranes

COc1cc(C(=O)NS(=O)(=O)c2ccccc2)ccc1Cn1ncc2ccc(NC(=O)OC3CCCC3)cc21 showed a Kd of 30.1 µM.
